# Read-outs that look alike come from different tables or passages of the source.
# Experiments:
# [1] = logP determination by reversed-phase HPLC (EEC Directive 79/831 Annex V.A8); type: physicochemical; settings: for logP a): acidic range: 0.1% aqueous phosphoric acid/acetonitrile gradient, C18, 43° C.
# Description: (a) Mobile phases for the determination of the acidic range: 0.1% aqueous phosphoric acid, acetonitrile; linear gradient from 10% acetonitrile to 90% acteonitrile—the corresponding measurement results in Table 1 are marked^a). […]
# [2] = test system: larvae of the mustard beetle (Phaedon cochleariae); assay: Phaedon larvae test (cabbage leaves, dip); type: in vivo; settings: 168 h, after 7 d, cabbage leaves dipped, read-out: Kill rate in % after 7 d
# Description: (§1) • Solvent: 7 parts by weight of dimethylformamide • Emulsifier: 2 parts by weight of alkylaryl polyglycol ether
# After the desired period of time, the kill in % is determined. 100% means that all beetle larvae have been killed; 0% means that none of the beetle larvae have been killed.
# Meloidogyne incognita = assay: Meloidogyne test (gall formation on lettuce roots); type: in vivo; settings: for pest or weed control at 20 ppm: Meloidogyne incognita, 336 h, after 14 d, nematicidal action by gall formation on lettuce, read-out: Kill rate in % after 14 d; for kill rate: 20 ppm, Meloidogyne test as described
# Description: as §1
# To produce a suitable preparation of active compound, 1 part by weight of active compound is mixed with the stated amounts of solvent and emulsifier, and the concentrate is diluted with water to the desired concentration.
# Vessels are filled with sand, solution of active compound, Meloidogyne incognita egg/larvae suspension and lettuce seeds. The lettuce seeds germinate and the plants develop. On the roots, galls are formed.
# After the desired period of time, the nematicidal action is determined in % using the formation of galls. 100% means that no galls were found; 0% means that the number of galls on the treated plants corresponds to that of the untreated control.
# [3] = test system: greenhouse red spider mite (Tetranychus urticae); assay: Tetranychus test (OP-resistant/dip treatment); type: in vivo; settings: 168 h, read-out: Kill rate in % after 7 d
# Description: Tetranychus Test (OP-Resistant/Dip Treatment)
# as §1
# After the desired period of time, the effect in % is determined. 100% means that all spider mites have been killed; 0% means that none of the spider mites have been killed.
# [4] = test system: peach aphid (Myzus persicae); assay: Myzus test (cabbage leaves, dip); type: in vivo; settings: 500 ppm, cabbage leaves dipped
# Description: as §1
# (§2) To produce a suitable preparation of active compound, 1 part by weight of active compound is mixed with the stated amounts of solvent and emulsifier, and the concentrate is diluted with emulsifier-containing water to the desired concentration.
# Cabbage leaves (Brassica oleracea) which are heavily infested by the peach aphid (Myzus persicae) are treated by being dipped into the preparation of active compound of the desired concentration.
# After the desired period of time, the kill in % is determined. 100% means that all aphids have been killed; 0% means that none of the aphids have been killed.
# [5] = test system: caterpillars of the armyworm (Spodoptera frugiperda); assay: Spodoptera frugiperda test (cabbage leaves, dip); type: in vivo; settings: 168 h, after 7 d, cabbage leaves dipped, read-out: Kill rate in % after 7 d
# Description: Spodoptera frugiperda Test
# as §1
# (§3) After the desired period of time, the kill in % is determined. 100% means that all caterpillars have been killed; 0% means that none of the caterpillars have been killed.
# [6] = test system: caterpillars of the diamondback moth (Plutella xylostella); assay: Plutella test (cabbage leaves, dip); type: in vivo; settings: 500 ppm, cabbage leaves dipped
# Description: as §1, §2
# Cabbage leaves (Brassica oleracea) are treated by being dipped into the preparation of active compound of the desired concentration and are populated with caterpillars of the diamondback moth (Plutella xylostella) while the leaves are still moist.
# as §3
# [7] = reversed-phase HPLC column (C18); acidic range: 0.1% aqueous phosphoric acid/acetonitrile gradient, C18, 43° C.; read-out: logP a)
# [8] = 100 ppm, after 7 d, OP-resistant, bean plants dipped
structure (smiles),measurement,setting,value
FC(F)=CCCSc1nccc(-c2ccc(Cl)s2)n1 [Example 3],chromatographic logP,[1]; [7],4.73
same,pest or weed control at 500 ppm,[2],100%
same,pest or weed control at 20 ppm,Meloidogyne incognita,100%
[O-][S+](CCC=C(F)F)c1nccc(-c2ccccn2)n1 (stereo not drawn) [Example 5],chromatographic logP,[1]; [7],1.47
same,pest or weed control at 100 ppm,[3],100%
FC(F)=CCCSc1nccc(-c2cccnc2)n1 [Example 9],chromatographic logP,[1]; [7],1.96
same,pest or weed control at 100 ppm,[3]; [8],100%
same,pest or weed control at 20 ppm,Meloidogyne incognita,100%
FC(F)=CCCSc1nccc(-c2ccncc2)n1 [Example 10],chromatographic logP,[1]; [7],1.72
same,pest or weed control at 500 ppm,[2],100%
FC(F)=CCCSc1nccc(-c2nccs2)n1 [Example 11],chromatographic logP,[1]; [7],3.33
same,Kill rate in % after 6 d,[4],95%
same,pest or weed control at 500 ppm,[2],95%
FC(F)=C(F)CCSc1nccc(-c2nccs2)n1 [Example 12],chromatographic logP,[1]; [7],1.56
same,pest or weed control at 20 ppm,Meloidogyne incognita,100%
FC(F)=CCCSc1nccc(-c2cnccn2)n1 [Example 14],chromatographic logP,[1]; [7],2.91
same,Kill rate in % after 6 d,[4],95%
same,pest or weed control at 100 ppm,[3]; [8],100%
FC(F)=C(F)CCSc1nccc(-c2cnccn2)n1 [Example 16],chromatographic logP,[1]; [7],2.92
same,pest or weed control at 20 ppm,Meloidogyne incognita,100%
FC(F)=CCCSc1nccc(-c2cccc(Br)n2)n1 [Example 17],chromatographic logP,[1]; [7],4.51
same,pest or weed control at 100 ppm,[3]; [8],100%
CCOc1cccc(-c2ccnc(SCCC=C(F)F)n2)n1 [Example 20],chromatographic logP,[1]; [7],4.91
same,pest or weed control at 500 ppm,[5],100%
FC(F)=C(F)CCSc1nccc(-c2ccc[nH]2)n1 [Example 21],pest or weed control at 20 ppm,Meloidogyne incognita,100%
FC(F)=C(F)CCSc1nccc(-n2cccn2)n1 [Example 22],chromatographic logP,[1]; [7],3.27
same,pest or weed control at 20 ppm,Meloidogyne incognita,100%
FC(F)=CCCSc1nccc(-n2cc(Cl)cn2)n1 [Example 24],chromatographic logP,[1]; [7],4.13
same,pest or weed control at 500 ppm,[2],100%
FC(F)=CCCSc1nccc(-c2cccs2)n1 [Example 27],chromatographic logP,[1]; [7],3.83
same,pest or weed control at 100 ppm,[3]; [8],100%
FC(F)=C(F)CCSc1nccc(-c2cccs2)n1 [Example 28],chromatographic logP,[1]; [7],3.84
same,pest or weed control at 20 ppm,Meloidogyne incognita,100%
FC(F)=CCCSc1nccc(-c2ccc3ccccc3n2)n1 [Example 31],chromatographic logP,[1]; [7],4.81
same,pest or weed control at 500 ppm,[5],100%
FC(F)=CCCSc1nccc(-c2cc(-c3ccccc3)ccn2)n1 [Example 32],chromatographic logP,[1]; [7],4.77
same,pest or weed control at 100 ppm,[3]; [8],100%
CC(C)(C)c1ccnc(-c2ccnc(SCCC=C(F)F)n2)c1 [Example 33],chromatographic logP,[1]; [7],4.8
same,pest or weed control at 100 ppm,[3]; [8],100%
FC(F)=C(F)CCSc1nccc(-c2ccc3ccccc3n2)n1 [Example 34],chromatographic logP,[1]; [7],4.81
same,pest or weed control at 20 ppm,Meloidogyne incognita,100%
Cc1cc(=O)[nH]n1-c1ccnc(SCCC=C(F)F)n1 [Example 39],chromatographic logP,[1]; [7],2.55
same,pest or weed control at 20 ppm,Meloidogyne incognita,100%
FC(F)=CCCSc1nccc(-n2nnc3ccccc32)n1 [Example 40],chromatographic logP,[1]; [7],3.97
same,pest or weed control at 500 ppm,[5],100%
FC(F)=C(F)CCSc1nccc(-n2cccc2)n1 [Example 41],pest or weed control at 20 ppm,Meloidogyne incognita,100%
FC(F)=CCCSc1nccc(-n2nc3ccccc3n2)n1 [Example 42],chromatographic logP,[1]; [7],3.98
same,pest or weed control at 100 ppm,[3]; [8],99%
FC(F)=CCCSc1nccc(-c2ncccc2Cl)n1 [Example 43],chromatographic logP,[1]; [7],3.32
same,pest or weed control at 100 ppm,[3]; [8],99%
FC(F)=CCCSc1nccc(-c2nc3ccc(Cl)cc3s2)n1 [Example 45],chromatographic logP,[1]; [7],5.57
same,pest or weed control at 20 ppm,Meloidogyne incognita,100%
FC(F)=CCCSc1nccc(-c2cscn2)n1 [Example 48],chromatographic logP,[1]; [7],3.14
same,pest or weed control at 500 ppm,[5],100%
COc1ccc(-c2ccnc(SCCC(F)=C(F)F)n2)nc1 [Example 49],chromatographic logP,[1]; [7],2.17
same,pest or weed control at 20 ppm,Meloidogyne incognita,100%
COc1ccc(-c2ccnc(SCCC=C(F)F)n2)nc1 [Example 50],chromatographic logP,[1]; [7],2.12
same,pest or weed control at 500 ppm,[5],100%
FC(F)=CCCSc1nccc(-c2ccc(Br)s2)n1 [Example 51],chromatographic logP,[1]; [7],4.77
same,pest or weed control at 500 ppm,[5],100%
Cc1ccc(-c2ccnc(SCCC=C(F)F)n2)s1 [Example 52],chromatographic logP,[1]; [7],4.3
same,pest or weed control at 500 ppm,[5],100%
FC(F)=CCCSc1nccc(-c2cc3ccccc3s2)n1 [Example 53],chromatographic logP,[1]; [7],4.87
same,pest or weed control at 500 ppm,[5],100%
Cc1c(-c2ccnc(SCCC=C(F)F)n2)sc2ccccc12 [Example 54],chromatographic logP,[1]; [7],5.25
same,pest or weed control at 500 ppm,[5],100%
same,Kill rate in % after 7 d,[6],100%
same,pest or weed control at 100 ppm,[3]; [8],100%
FC(F)=C(F)CCSc1nccc(-c2cc3ccccc3s2)n1 [Example 57],chromatographic logP,[1]; [7],4.85
same,pest or weed control at 20 ppm,Meloidogyne incognita,100%
FC(F)=CCCSc1nccc(-c2ccsc2)n1 [Example 59],chromatographic logP,[1]; [7],3.8
same,pest or weed control at 500 ppm,[2],100%
FC(F)=C(F)CCSc1nccc(-c2ccsc2)n1 [Example 60],chromatographic logP,[1]; [7],3.82
same,pest or weed control at 20 ppm,Meloidogyne incognita,100%
Cc1cc(-c2ccnc(SCCC(F)=C(F)F)n2)c(C)s1 [Example 62],chromatographic logP,[1]; [7],4.79
same,pest or weed control at 20 ppm,Meloidogyne incognita,100%
FC(F)=CCCSc1nccc(-c2cc(Cl)sc2Cl)n1 [Example 63],chromatographic logP,[1]; [7],5.65
same,pest or weed control at 500 ppm,[5],100%
same,pest or weed control at 100 ppm,[3],100%
FC(F)=C(F)CCSc1nccc(-c2cc(Cl)sc2Cl)n1 [Example 64],chromatographic logP,[1]; [7],5.55
same,pest or weed control at 20 ppm,Meloidogyne incognita,100%
CC(C)(C)n1nnc(-c2cnc(SCCC(F)=C(F)F)nc2)n1 [Example 67],chromatographic logP,[1]; [7],4.22
same,pest or weed control at 500 ppm,[2],100%
same,pest or weed control at 20 ppm,Meloidogyne incognita,100%
Cc1nn(-c2ccnc(SCCC=C(F)F)n2)cc1Br [Example 82],logP a),[1],logP '2 4.76^a)
same,kill rate,Meloidogyne incognita,100%
CC(C)Oc1cnn(-c2ccnc(SCCC=C(F)F)n2)c1 [Example 85],logP a),[1],logP = 4.26^a)
same,kill rate,Meloidogyne incognita,100%
Cc1cc(C)n(-c2ccnc(SCCC=C(F)F)n2)n1 [Example 86],logP a),[1],logP = 3.95^a)
same,kill rate,Meloidogyne incognita,100%
FC(F)=CCCSc1nccc(-n2ncc3ccccc32)n1 [Example 87],logP a),[1],logP = 4.26^a)
same,kill rate,Meloidogyne incognita,100%
FC(F)=CCCSc1nccc(-n2cnc(Cl)c2Cl)n1 [Example 88],logP a),[1],logP = 3.57^a)
same,kill rate,Meloidogyne incognita,100%
FC(F)=CCCSc1nccc(-n2cnc(-c3ccccc3)c2)n1 [Example 92],logP a),[1],logP = 3.45^a)
same,kill rate,Meloidogyne incognita,100%
Nc1nn(-c2ccnc(SCCC=C(F)F)n2)cc1Br [Example 93],logP a),[1],logP = 3.15^a)
same,kill rate,Meloidogyne incognita,100%
Nc1ccn(-c2ccnc(SCCC=C(F)F)n2)n1 [Example 97],logP a),[1],logP = 2.31^a)
same,kill rate,Meloidogyne incognita,100%
N#Cc1cccn1-c1ccnc(SCCC=C(F)F)n1 [Example 104],logP a),[1],logP = 3.23^a)
same,kill rate,Meloidogyne incognita,100%
Cc1nccn1-c1ccnc(SCCC=C(F)F)n1 [Example 107],logP a),[1],logP = 1.30^a)
same,kill rate,Meloidogyne incognita,100%
FC(F)=CCCSc1nccc(-n2cnc(Cl)n2)n1 [Example 109],logP a),[1],logP = 3.31^a)
same,kill rate,Meloidogyne incognita,100%
O=[N+]([O-])c1ncn(-c2ccnc(SCCC=C(F)F)n2)n1 [Example 110],logP a),[1],logP = 2.95^a)
same,kill rate,Meloidogyne incognita,100%
FC(F)=CCCSc1nccc(-n2cncn2)n1 [Example 112],logP a),[1],logP = 2.44^a)
same,kill rate,Meloidogyne incognita,100%
O=C1CCC(=O)N1c1ccnc(SCCC=C(F)F)n1 [Example 119],kill rate,Meloidogyne incognita,100%
FC(F)=CCCSc1nccc(-n2cccc2)n1 [Example 120],kill rate,Meloidogyne incognita,100%
FC(F)=CCCSc1nccc(-n2nccn2)n1 [Example 125],kill rate,Meloidogyne incognita,100%
"FC(F)=CCCSc1nccc(Cl)n1 [Example (II-1), 4-chloro-2-[(4,4-difluoro-3-butenyl)-sulfanyl]-pyrimidine]",chromatographic logP,"[1]; reversed-phase HPLC column (C18), pH 2.3, read-out: logP (pH 2.3)",3.3
